From US20160338928A1, “SKIN ENGAGING MEMBER COMPRISING A CYCLOHEXANECARBOXAMIDE DERIVATIVE” (The Gillette Company, priority 2015, published 2016)

What was measured:
[1] = concentration where the cooling effect could be clearly recognized; reported by Emberger and Hopp 1987; cited from earlier work
human TRPM8 = target: T1, human TRPM8 (Homo sapiens, UniProt Q7Z2W7); test: TRPM8 activation, FLIPR calcium flux in HEK cells stably transfected with human TRPM8; assay type: cell-based; conditions: amino acid derived side chain (alanine) in R (28) and S (776) configuration
T1 construct: expressed in transfected cells
T1 sequence (Q7Z2W7 whole entry): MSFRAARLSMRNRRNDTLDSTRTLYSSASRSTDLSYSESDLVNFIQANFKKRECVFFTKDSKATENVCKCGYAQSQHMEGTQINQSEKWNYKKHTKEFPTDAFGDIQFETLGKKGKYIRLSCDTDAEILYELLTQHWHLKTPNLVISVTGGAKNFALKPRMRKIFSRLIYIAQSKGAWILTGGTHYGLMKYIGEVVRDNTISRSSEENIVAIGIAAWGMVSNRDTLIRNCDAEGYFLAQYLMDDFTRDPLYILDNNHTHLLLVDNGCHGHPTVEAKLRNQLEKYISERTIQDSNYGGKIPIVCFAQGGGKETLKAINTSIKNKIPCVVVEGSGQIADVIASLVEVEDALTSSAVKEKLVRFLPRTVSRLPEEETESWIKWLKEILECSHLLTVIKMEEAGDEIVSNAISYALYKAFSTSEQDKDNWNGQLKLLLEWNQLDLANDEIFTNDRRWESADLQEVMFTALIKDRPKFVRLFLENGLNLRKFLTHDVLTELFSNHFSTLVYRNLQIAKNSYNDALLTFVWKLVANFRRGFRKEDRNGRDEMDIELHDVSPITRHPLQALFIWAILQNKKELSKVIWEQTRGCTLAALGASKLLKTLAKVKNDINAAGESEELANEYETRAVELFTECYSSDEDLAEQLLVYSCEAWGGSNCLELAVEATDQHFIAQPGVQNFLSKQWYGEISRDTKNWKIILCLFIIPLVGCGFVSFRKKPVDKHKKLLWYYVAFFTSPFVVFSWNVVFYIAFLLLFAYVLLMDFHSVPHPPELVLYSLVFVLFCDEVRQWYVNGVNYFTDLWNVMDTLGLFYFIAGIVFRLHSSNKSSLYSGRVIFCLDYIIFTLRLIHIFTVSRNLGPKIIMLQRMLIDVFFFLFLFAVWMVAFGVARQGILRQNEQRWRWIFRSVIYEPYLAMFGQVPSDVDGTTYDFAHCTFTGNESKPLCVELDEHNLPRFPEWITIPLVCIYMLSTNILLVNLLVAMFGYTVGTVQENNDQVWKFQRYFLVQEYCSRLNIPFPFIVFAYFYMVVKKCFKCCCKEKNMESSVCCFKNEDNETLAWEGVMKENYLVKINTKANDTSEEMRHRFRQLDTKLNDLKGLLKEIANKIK
Procedure: […] (human embryonic kidney) cells stably transfected with human TRPM8 are grown in 15 ml growth medium (high glucose DMEM (Dulbecco's Modification of Eagle's Medium) supplemented with 10% FBS (fetal bovine serum), 100 ug/ml penicillin/streptomycin, 5 μg/ml blasticindin, and 100 μg/ml zeocin) in a 75 CM^2 flask for 3 days at 37° C. in a mammalian cell culture incubator set at 5% CO2. Cells are detached with addition of 2 ml of trypsin-EDTA buffer (GIBCO® 25200, Invitrogen) for about 2-3 min. Trypsin is inactivated by addition of 8 ml growth medium. Cells are transferred to a 50 ml tube and centrifuged at 850 rpm for 3 minutes to remove medium. After centrifugation, a pellet of cells is formed in the bottom of the tube separating them from the supernatant solution. […] (Fluo-4 AM is a fluorescent dye used for quantifying cellular Ca^2+ concentrations in the 100 nM to 1 microM range.) At the end of 30 minutes, 45 ml of assay buffer (1×HBSS (Hank's Balanced Salt Solution), 20 mM HEPES (4-(2-Hydroxyethyl)-1-piperazineethanesulfonic acid)) is added to wash cells and the resulting mixture is then centrifuged at 850 rpm for 3 minutes to remove excess buffer and Fluo-4 AM calcium indicator. […]

| SMILES | cooling threshold [1] | activity towards the receptor (human TRPM8) |
| --- | --- | --- |
| CC(C)[C@@H]1CC[C@@H](C)C[C@@H]1O [d-neomenthol] | about 25,000 ppb | – |
| CC(C)[C@@H]1CC[C@@H](C)C[C@H]1O [L-menthol] | about 800 ppb | – |
| COc1ccc(NC(=O)[C@@H]2C[C@H](C)CC[C@H]2C(C)C)c(NC(=O)[C@H](C)N)c1 [Compound 776] | – | excellent activity |
| CC(C)[C@@H]1CC[C@@H](C)C[C@H]1C(=O)NCC(NC(=O)[C@@H](C)N)c1ccccc1 (some centres unmarked) [Compound 28] | – | excellent activity |
| CC(C)[C@@H]1CC[C@@H](C)C[C@@H]1O [Compound 1-neomenthol, 1-neomenthol] | about 3,000 ppb | – |
